Measurements taken from ChEMBL document CHEMBL1201862, “PubChem BioAssay data set” (2004).
Structures can show the parent of a compound that is named as a salt. The source made the active and inactive calls. Rule as the data show it, for most assays here: actives have a measured EC50 and inactives only a lower limit.

How the values were obtained:
Cytochrome P450 3A4 = Cytochrome P450 3A4 (Homo sapiens, UniProt P08684);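 also: CYP3A4 tested as one member of a cytochrome P450 panel screen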
[1] = inhibitors of intracellular T. cruzi replication, confirmation, NIH3T3 host cells, beta-gal luminescence (AID 2044); type: functional, cell-based;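 also: intracellular parasites grown in NIH/3T3 mouse fibroblasts as host cells; luminescent beta-galactosidase reporter signal from transgenic T. cruzi replicating inside host cells; inhibitors lower the luminescence signal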
[2] = cytotoxicity toward NIH3T3 fibroblasts, dose response, counter-screen, cell-based, ATP luminescence, mouse fibroblasts (AID 2010); type: functional;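 also: cells exposed to compound for about 90 hours before reading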
[3] = Luminescence Cell-Based Dose Confirmation HTS to Identify Activators of 5'UTR Stem-Loop Driven Alpha-Synuclein mRNA Translation in H4 Neuroglioblastoma Cells. [Related pubchem assays: 1829 (Project Summary), 1814 (Primary HTS)]; type: functional
[4] = Luminescence Cell-Based Dose Response HTS to Identify Activators of Luciferase Translation or Activity in H4 […] Cells. [Related pubchem assays: 1829 (Project Summary), 1814 (Primary HTS)]; type: functional
H4 = assay: Luminescence Cell-Based Dose Response HTS to Identify Activators of 5'UTR Stem-Loop Driven Prion Protein mRNA Translation in H4 Neuroglioblastoma Cells. [Related pubchem assays: 1829 (Project Summary), 1814 (Primary HTS)]; type: functional; details: Homo sapiens
Cytochrome P450 1A2 = biological target: T1, Cytochrome P450 1A2 (Homo sapiens, UniProt P05177);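 also: PubChem cytochrome P450 panel assay, CYP1A2 panel member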
T1 sequence (P05177 whole entry): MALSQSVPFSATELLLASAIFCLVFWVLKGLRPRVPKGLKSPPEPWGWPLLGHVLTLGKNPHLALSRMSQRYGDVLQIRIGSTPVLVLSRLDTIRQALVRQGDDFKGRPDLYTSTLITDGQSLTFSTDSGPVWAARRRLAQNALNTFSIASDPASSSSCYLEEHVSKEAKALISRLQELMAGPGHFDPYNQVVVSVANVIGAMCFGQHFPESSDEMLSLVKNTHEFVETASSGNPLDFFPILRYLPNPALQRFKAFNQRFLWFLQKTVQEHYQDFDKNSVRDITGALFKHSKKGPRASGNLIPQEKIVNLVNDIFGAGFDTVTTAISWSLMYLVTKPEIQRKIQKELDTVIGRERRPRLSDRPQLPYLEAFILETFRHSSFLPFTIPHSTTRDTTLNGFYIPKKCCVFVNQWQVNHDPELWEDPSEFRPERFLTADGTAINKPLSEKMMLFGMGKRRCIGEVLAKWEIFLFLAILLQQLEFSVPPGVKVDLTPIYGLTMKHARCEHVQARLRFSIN

[5] = biological target: T2, Corticotropin-releasing factor receptor 2/Corticotropin-releasing factor-binding protein (Homo sapiens, UniProt P24387+Q13324); assay: activators of CRF receptor 2 with binding protein – uHTS hits, confirmation (AID 602473); type: functional; details: read-out: EC50_Mean
T2 sequence (Q13324 whole entry): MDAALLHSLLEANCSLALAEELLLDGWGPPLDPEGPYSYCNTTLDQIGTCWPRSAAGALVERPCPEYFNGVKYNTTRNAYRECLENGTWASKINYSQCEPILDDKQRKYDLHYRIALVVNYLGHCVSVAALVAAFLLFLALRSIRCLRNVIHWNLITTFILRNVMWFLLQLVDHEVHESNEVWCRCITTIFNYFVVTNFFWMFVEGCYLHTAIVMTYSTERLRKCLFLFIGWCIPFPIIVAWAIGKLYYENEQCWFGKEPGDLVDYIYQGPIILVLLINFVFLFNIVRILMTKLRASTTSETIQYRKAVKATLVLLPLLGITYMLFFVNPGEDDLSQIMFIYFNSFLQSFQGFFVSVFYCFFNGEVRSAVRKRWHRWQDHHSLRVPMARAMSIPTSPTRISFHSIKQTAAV
T2 sequence (P24387 whole entry): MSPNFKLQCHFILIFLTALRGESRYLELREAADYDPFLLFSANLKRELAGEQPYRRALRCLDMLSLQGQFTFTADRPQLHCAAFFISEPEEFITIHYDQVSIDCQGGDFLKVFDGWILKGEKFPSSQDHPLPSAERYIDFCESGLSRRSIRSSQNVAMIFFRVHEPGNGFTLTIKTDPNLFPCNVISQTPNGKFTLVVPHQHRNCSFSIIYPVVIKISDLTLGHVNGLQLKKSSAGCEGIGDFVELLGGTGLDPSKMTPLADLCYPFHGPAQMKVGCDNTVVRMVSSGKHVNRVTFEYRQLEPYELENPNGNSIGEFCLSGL

Cytochrome P450 3A4, sequence (P08684 whole entry): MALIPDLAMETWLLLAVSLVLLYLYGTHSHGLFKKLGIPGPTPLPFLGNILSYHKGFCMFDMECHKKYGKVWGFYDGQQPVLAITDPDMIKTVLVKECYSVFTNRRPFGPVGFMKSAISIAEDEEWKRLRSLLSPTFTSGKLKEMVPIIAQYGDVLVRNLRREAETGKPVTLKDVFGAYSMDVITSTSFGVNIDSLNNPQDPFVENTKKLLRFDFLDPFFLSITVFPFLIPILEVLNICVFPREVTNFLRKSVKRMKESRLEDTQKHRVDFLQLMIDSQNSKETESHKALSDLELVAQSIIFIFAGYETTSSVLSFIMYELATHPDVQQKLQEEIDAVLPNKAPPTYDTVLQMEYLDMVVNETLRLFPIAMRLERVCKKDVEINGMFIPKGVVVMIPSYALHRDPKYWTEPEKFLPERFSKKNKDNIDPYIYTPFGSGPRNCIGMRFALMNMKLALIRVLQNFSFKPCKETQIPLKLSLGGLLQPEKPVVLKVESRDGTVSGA

## Cc1nn(CC(O)COc2ccc3c(c2)CCC3)c(C)c1Br (centres undefined)
Cytochrome P450 3A4
  AC50: 15.8 µM (inconclusive)

## CCOC(=O)c1sc2ncnc(N3CCN(CC)CC3)c2c1C
[1]
  EC50: 0.577 µM (active)
[2]
  EC50: > 60 µM (inconclusive)

## CCOC(=O)N1CC=C2C(C#N)=C(N)C(C#N)(C#N)[C@H](c3ccccc3OCC)[C@H]2C1
[3]
  EC50: > 120 µM (not active)
[4]
  EC50: > 120 µM (not active)
H4
  EC50: > 120 µM (not active)

## O=C1OC(c2ccccc2)=N/C1=C\N1CCCCC1
[3]
  EC50: 0.176 µM (active)
[4]
  EC50: 0.374 µM (active)
H4
  EC50: > 120 µM (not active)

## c1ccc(Cn2c(Sc3nnnn3-c3ccccc3)nnc2-c2ccccc2)cc1
[3]
  EC50: > 120 µM (not active)
[4]
  EC50: 11.9 µM (active)
H4
  EC50: > 120 µM (not active)

## Cn1c(C(=O)OC(C(=O)NC2CCCC2)c2cccnc2)cc2sccc21 (centres undefined)
[1]
  EC50: 0.489 µM (active)
[2]
  EC50: > 60 µM (not active)

## O=[N+]([O-])c1cc(-c2n(-c3ccccn3)c3ccccc3[n+]2-c2ccccn2)ccc1Cl
[3]
  EC50: 56.9 µM (active)
[4]
  EC50: 14.2 µM (active)
H4
  EC50: > 120 µM (not active)

## Clc1ccc(CSc2nnc(-c3ccncc3)s2)cc1
[1]
  EC50: 2.14 µM (active)
[2]
  EC50: 26.3 µM (active)

## CNCCC=C1c2ccccc2CCc2ccccc21 [NORTRIPTYLINE]
Cytochrome P450 1A2
  AC50: 25.1 µM (inconclusive)

## CN1CCN(CCCc2c3c(cc4c2CCC4)CCC3)CC1
[1]
  EC50: 0.601 µM (active)
[2]
  EC50: > 60 µM (not active)

## COc1cc2c(cc1OC)[C@@H]1Cc3ccc(OC)c(OC)c3CN1CC2
[1]
  EC50: > 60 µM (not active)
[2]
  EC50: > 60 µM (not active)

## CCN1CCN(c2ccc(S(=O)(=O)N3CCOCC3)cc2NC(=O)CCOc2ccccc2)CC1
[1]
  EC50: 1.26 µM (active)
[2]
  EC50: > 60 µM (not active)

## CC(=O)Nc1cccc(OC(=O)c2ccoc2C)c1
[5]
  EC50: 4.9 µM (active)

## COc1ccc(CNN2CCCCC2C(=O)Nc2ccc(OC)c(OCC(C)C)c2)cc1OC (centres undefined)
[1]
  EC50: > 60 µM (not active)
[2]
  EC50: > 60 µM (not active)

## O=[N+]([O-])c1cccc(-c2cn(-c3ccccc3)c(S)n2)c1
[3]
  EC50: 5.64 µM (active)
[4]
  EC50: > 120 µM (not active)
H4
  EC50: > 120 µM (not active)

## N=C(N)NC(=O)c1nc(Cl)c(N)nc1N [AMILORIDE HYDROCHLORIDE]
Cytochrome P450 1A2
  AC50: 6.31 µM (inconclusive)

## O=C(Nn1cc(C(=O)N2CCN(c3ccccc3F)CC2)c2ccccc2c1=O)c1cnccn1
Cytochrome P450 1A2
  AC50: 12.6 µM (inconclusive)
Cytochrome P450 3A4
  AC50: 28.2 µM (inconclusive)

## O=c1c(CCc2ccccc2)nc2cnc(N3CCOCC3)nc2n1Cc1ccc(F)cc1
Cytochrome P450 1A2
  AC50: 10 µM (inconclusive)

## Cn1c(=O)cc(OCCCC(=O)N2CCN(c3ccccc3)CC2)c2ccccc21
Cytochrome P450 1A2
  AC50: 15.8 µM (inconclusive)
Cytochrome P450 3A4
  AC50: 1.12 µM (inconclusive)

## CN(C)c1ncc2nc(-c3ccc(F)cc3)c(=O)n(Cc3cccs3)c2n1
Cytochrome P450 3A4
  AC50: 25.1 µM (inconclusive)

## COc1ccc(C(CNC(=O)c2cc(O)nc3ccccc23)N2CCCC2)cc1 (centres undefined)
Cytochrome P450 1A2
  AC50: 20 µM (inconclusive)
Cytochrome P450 3A4
  AC50: 15.8 µM (inconclusive)

## CCOC(=O)c1sc(NC(=O)c2cc(-c3ccccc3)nc3ccccc23)c(C#N)c1C
[5]
  EC50: 0.544 µM (active)

## Cc1nc2c(ccc3nc(NC(=O)c4ccc5c(c4)OCCO5)sc32)s1
[1]
  EC50: 3.07 µM (active)
[2]
  EC50: > 30 µM (not active)

## CO[C@@H]1COC(=O)C/C=C\[C@@H](C)COC(=O)[C@H](Cc2ccccc2)NC(=O)C/C=C\[C@H]1C
Cytochrome P450 3A4
  AC50: 1.58 µM (inconclusive)

## Cc1[nH]c2ccc(-c3nnc(SCC(=O)N4CCCc5ccccc54)o3)cc2c1C
[1]
  EC50: 0.782 µM (active)
[2]
  EC50: > 60 µM (not active)

## Cc1ccc(NC(=O)CN2CCCCCC2)c(Br)c1
[4]
  EC50: 9.38 µM (active)
H4
  EC50: 59.9 µM (active)

## c1cncc(-c2nc(NCc3ccc4c(c3)OCO4)c3ccccc3n2)c1
[1]
  EC50: 0.921 µM (active)
[2]
  EC50: > 30 µM (not active)

## Cc1nc(-c2ccncc2)nc(NCCNc2ncccc2C(F)(F)F)c1Cl
[1]
  EC50: 0.364 µM (active)
[2]
  EC50: > 60 µM (not active)

## CN(C(=O)c1ccc(S(=O)(=O)NC2CCCC2)cc1)C1CCCCC1
[5]
  EC50: > 53 µM (inactive)

## Cc1ccc2c(c1)/C(=N/C1CCCCC1)c1cc3ccccc3nc1-2
[3]
  EC50: 14.9 µM (active)
[4]
  EC50: 37.2 µM (active)
H4
  EC50: 0.408 µM (active)

## O=C(CSc1nnc(-c2ccc(F)cc2)c2ccccc12)Nc1cccc(Cl)c1
[1]
  EC50: 2.16 µM (active)
[2]
  EC50: > 30 µM (not active)

## O=C(Nc1ccc(SC(F)F)cc1)c1ccc2c(=O)n3c(nc2c1)CCC3
[5]
  EC50: 1.4 µM (active)

## C=CCN1C(=O)NC(=O)/C(=C/c2cccn2C)C1=O
Cytochrome P450 1A2
  AC50: 15.8 µM (inconclusive)

## Cc1ccc(Cl)cc1N1CCN(CC(=O)Nc2ccc(CN3CCCCC3)cc2)CC1
[1]
  EC50: 1.31 µM (active)
[2]
  EC50: > 60 µM (not active)

## Cc1ccc(NC(=O)CCSc2nnc3ccccn23)cc1
Cytochrome P450 3A4
  AC50: 0.891 µM (inconclusive)

## O=C(c1ccco1)N1CCn2c1nc1ccccc12
[3]
  EC50: 1.12 µM (active)
[4]
  EC50: 35.3 µM (active)
H4
  EC50: 6.26 µM (active)

## Cc1cccc(CSc2nc3c(cc2C#N)CN(C)CC3)c1
[1]
  EC50: 0.156 µM (active)
[2]
  EC50: > 30 µM (not active)

## O=C(C[n+]1c2n(c3ccc(C(F)(F)F)cc31)CCCCC2)c1ccc2c(c1)OCCO2
[1]
  EC50: 1.3 µM (active)
[2]
  EC50: > 60 µM (not active)

## O[C@@H](c1cc(-c2ccccc2)nc2c1ccc1ccccc12)[C@@H]1CCCCN1
Cytochrome P450 1A2
  AC50: 5.01 µM (inconclusive)

## Nc1c(-c2ccccc2)cnn1-c1cccc(C(F)(F)F)c1
[3]
  EC50: 0.538 µM (active)
[4]
  EC50: 56.7 µM (active)
H4
  EC50: 8 µM (active)

## CO[C@@H]1COC(=O)[C@H](COCc2ccccc2)NC(=O)C/C=C\[C@@H](C)[C@H](OC)COC(=O)[C@@H](C)NC(=O)C/C=C\[C@H]1C
Cytochrome P450 3A4
  AC50: 3.16 µM (inconclusive)

## COc1ccc(C(=O)N2CCC3(CCCN(Cc4nccs4)C3)CC2)cc1
Cytochrome P450 3A4
  AC50: 7.94 µM (inconclusive)

## Cc1ccc(S(=O)(=O)Nc2cccc(C(=O)NC3CCN(Cc4ccccc4)CC3)c2)cc1F
[1]
  EC50: 1.12 µM (active)
[2]
  EC50: > 60 µM (not active)

## Cc1ccc(NC2CCCN(C(=O)CSc3ccncc3)C2)cc1C (centres undefined)
[1]
  EC50: 0.294 µM (active)
[2]
  EC50: > 60 µM (not active)

## CS(=O)(=O)Nc1ccc([N+](=O)[O-])cc1OC1CCCCC1 [NS-398]
Cytochrome P450 3A4
  AC50: 20 µM (inconclusive)

## NC(=O)c1c(NC(=O)CCCn2cnc([N+](=O)[O-])n2)sc2c1CCCC2
[1]
  EC50: 0.125 µM (active)
[2]
  EC50: > 60 µM (not active)

## Cc1cc(C)c2c(N)c(C(=O)c3ccccc3Cl)sc2n1
[1]
  EC50: 0.1 µM (active)
[2]
  EC50: > 60 µM (not active)

## Cc1cc(N/C=C\C(=O)c2ccc(Cl)c(Cl)c2)no1
[3]
  EC50: 2.53 µM (active)
[4]
  EC50: 15 µM (active)
H4
  EC50: > 120 µM (not active)

## CCc1ccc(N2CC(C(=O)NC3=NCCS3)CC2=O)cc1 (centres undefined)
Cytochrome P450 1A2
  AC50: 20 µM (inconclusive)

## Cc1cccc2sc(N(CCN(C)C)C(=O)C3CCN(S(=O)(=O)c4cccs4)CC3)nc12
[1]
  EC50: 0.24 µM (active)
[2]
  EC50: > 60 µM (not active)

## C[C@@H](C(=O)O)c1ccc(-c2ccccc2)c(F)c1 [TARENFLURBIL]
Cytochrome P450 1A2
  AC50: 31.6 µM (inconclusive)

## Oc1ccc2c3c1O[C@H]1c4oc5ccccc5c4C[C@]4(O)[C@H](C2)N(CC2CC2)CC[C@@]314
Cytochrome P450 3A4
  AC50: 15.8 µM (inconclusive)
